US20250098683A1 (priority 2018, published 2025)

Assays:
[1] = system: bacteria; test: Treated, dried seeds placed on LB or PDA plates; type: cell-based
Protocol: (§1) Carrot, Swiss chard, and spinach seeds (1 kg, 5 kg, and 5 kg respectively) were placed into separate Petri dishes. From each of these seeds, 9 samples were taken, each sample weighing 50 grams. […] The liquid of carrot and Swiss chard treatments were streaked on LB media plates, and kept in a 37 degrees Celsius incubator overnight, and inspected for bacterial growth on the following day. The treated seed were dried in 40 C oven for three days, and some seeds were placed on LB or PDA plates.

[2] = system: bacteria; test: Seed wash liquid streaked on LB media plates, inspected for bacterial growth; type: cell-based; conditions: treated five minutes, 37 C overnight
Protocol: as §1

SMILES: [Na+].[O-]Cl [1.2% bleach, Sodium hypochlorite]
- Swiss chard seeds from which bacteria were found ([1]; Swiss chard seeds on LB plates): about 50%
- carrot seeds from which bacteria were found ([1]; carrot seeds, three days after placing on LB plates): about 50%
- microbes found from spinach seed ([1]; spinach seeds on plates): both fungal and bacterial microbes were found
- bacteria in wash liquid after Swiss chard seeds were washed ([2]; Swiss chard seeds): some bacteria
- bacteria in wash liquid after carrot seeds were washed ([2]; carrot seeds): some bacteria
